Key:
CYP1A2 = CYP1A2 (Homo sapiens, UniProt P05177); assay: In vitro CYP inhibition; type: in vitro ADME; details: In Vitro Studies
pregnant rats = assay: Embryo-fetal development study in pregnant rats; type: in vivo, rat
Excerpt: Plasma exposure (based on area under the concentration-time curve or AUC) at the no-effect dose for embryo-fetal development in rats is 0.3 times the exposure in humans at the MRHD.

BCRP = BCRP (Homo sapiens, UniProt Q9UNQ0); assay: In vitro transporter inhibition; type: in vitro ADME; details: In Vitro Studies
BCRP, sequence (Q9UNQ0 whole entry): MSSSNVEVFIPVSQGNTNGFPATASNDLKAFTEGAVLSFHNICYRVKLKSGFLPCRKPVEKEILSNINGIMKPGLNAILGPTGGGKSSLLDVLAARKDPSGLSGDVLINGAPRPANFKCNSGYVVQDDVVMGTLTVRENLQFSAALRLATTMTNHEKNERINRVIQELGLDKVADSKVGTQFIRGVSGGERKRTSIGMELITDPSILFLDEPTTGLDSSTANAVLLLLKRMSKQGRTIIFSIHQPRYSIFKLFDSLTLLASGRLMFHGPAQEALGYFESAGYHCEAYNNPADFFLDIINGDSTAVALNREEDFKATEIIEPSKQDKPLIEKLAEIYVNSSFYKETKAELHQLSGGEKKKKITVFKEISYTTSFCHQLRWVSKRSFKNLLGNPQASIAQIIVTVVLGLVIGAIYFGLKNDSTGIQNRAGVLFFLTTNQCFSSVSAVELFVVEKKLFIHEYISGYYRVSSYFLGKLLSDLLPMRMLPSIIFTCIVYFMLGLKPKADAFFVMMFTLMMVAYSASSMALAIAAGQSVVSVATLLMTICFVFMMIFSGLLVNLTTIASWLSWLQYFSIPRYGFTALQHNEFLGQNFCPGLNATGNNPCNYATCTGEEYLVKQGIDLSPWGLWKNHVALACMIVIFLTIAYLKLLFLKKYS

CYP2C19 [1] = assay: Pharmacogenomics: CYP2C19 poor vs normal metabolizers, single 15 mg dose; type: in vivo, human; details: for half-life: human, in vivo, 15 mg
Excerpt: Mean half-life is prolonged in CYP2C19 PMs compared to NMs (23 days vs. 6 to 9 days, respectively).
Polymorphic CYP2C19 is the main enzyme involved in the metabolism of MAVACAMTEN. An individual carrying two normal function alleles is a NM (e.g., *1/*1). An individual carrying two no function alleles is a PM (e.g., *2/*2, *2/*3, *3/*3).

[2] = tested on: adults with symptomatic NYHA class II and III obstructive HCM; assay: EXPLORER-HCM Phase 3, double-blind, randomized, placebo-controlled trial; type: in vivo, human
Experimental: The safety of MAVACAMTEN was evaluated in EXPLORER-HCM, a Phase 3, double-blind, randomized, placebo-controlled trial. Of the 251 adults with obstructive HCM, 123 patients were treated with MAVACAMTEN 2.5-15 mg daily and 128 were treated with placebo.
The efficacy of MAVACAMTEN was evaluated in EXPLORER-HCM (NCT-03470545) a Phase 3, double-blind, randomized, placebo-controlled, multicenter, international, parallel-group trial in 251 adults with symptomatic NYHA class II and III obstructive HCM, LVEF≥55%, and Valsalva LVOT peak gradient ≥50 mmHg at rest or with provocation.
Patients on dual therapy with beta blocker and calcium channel blocker treatment or monotherapy with disopyramide or ranolazine were excluded. Patients with a known infiltrative or storage disorder causing cardiac hypertrophy that mimicked obstructive HCM, such as Fabry disease, amyloidosis, or Noonan syndrome with left ventricular hypertrophy, were also excluded.
Patients were randomized in a 1:1 ratio to receive either a starting dose of 5 mg of MAVACAMTEN or placebo once daily for 30 weeks. Treatment assignment was stratified by baseline NYHA functional class, baseline use of beta blockers, and type of ergometer (treadmill or exercise bicycle).
All patients were initiated on MAVACAMTEN 5 mg (or matching placebo) once daily, and the dose was periodically adjusted to optimize patient response (decrease in LVOT gradient with Valsalva maneuver) and maintain LVEF≥50%. The dose was also informed by plasma concentrations of MAVACAMTEN.
The primary composite functional endpoint, assessed at 30 weeks, was defined as the proportion of patients who achieved either improvement of […] (pVO2) by ≥1.5 mL/kg/min plus improvement in NYHA class by at least 1 or improvement of pVO2 by ≥3.0 mL/kg/min plus no worsening in NYHA class.
The treatment effects of MAVACAMTEN on LVOT obstruction, functional capacity, and health status were assessed by change from baseline through Week 30 in post-exercise LVOT peak gradient, change in pVO2, proportion of patients with improvement in NYHA class, Kansas City Cardiomyopathy Questionnaire-23 (KCCQ-23) Clinical Summary Score (CSS), and Hypertrophic Cardiomyopathy Symptom Questionnaire (HCMSQ) Shortness of Breath (SoB) domain score.
Missing data were not imputed to summarize the baseline and change from baseline to Week 30 values. Difference in mean change from baseline between treatment groups was estimated using a mixed model for repeated measures.

[3] = tested on: bacterial reverse mutation; assay: Bacterial reverse mutation test (Ames test); type: cell-based
CYP3A4 = CYP3A4 (Homo sapiens, UniProt P08684); assay: In vitro CYP inhibition; type: in vitro ADME; details: In Vitro Studies; clinically relevant concentrations
CYP3A4, sequence (P08684 whole entry): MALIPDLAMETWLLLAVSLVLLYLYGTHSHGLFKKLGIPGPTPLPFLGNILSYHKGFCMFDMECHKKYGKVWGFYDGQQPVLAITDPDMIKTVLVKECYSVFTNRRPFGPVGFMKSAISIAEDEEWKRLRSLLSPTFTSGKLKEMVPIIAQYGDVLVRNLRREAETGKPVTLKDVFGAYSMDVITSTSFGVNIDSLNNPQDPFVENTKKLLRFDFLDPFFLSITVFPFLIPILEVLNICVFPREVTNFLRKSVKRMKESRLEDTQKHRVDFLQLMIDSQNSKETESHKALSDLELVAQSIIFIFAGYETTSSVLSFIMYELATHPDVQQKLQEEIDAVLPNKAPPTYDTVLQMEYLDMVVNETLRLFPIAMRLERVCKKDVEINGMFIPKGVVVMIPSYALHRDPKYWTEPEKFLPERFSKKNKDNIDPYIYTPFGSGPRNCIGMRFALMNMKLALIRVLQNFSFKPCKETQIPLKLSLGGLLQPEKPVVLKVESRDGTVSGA

lymphocyte = assay: Human in vitro lymphocyte clastogenicity assay; type: cell-based
healthy subjects = assay: Doses of up to 25 mg for up to 25 days in healthy subjects; type: in vivo; details: 25 mg dose level for up to 25 days
Experimental: Human experience of overdose with MAVACAMTEN is limited. MAVACAMTEN has been given as a single dose of up to 144 mg in patients with HCM. […] In healthy subjects, doses of up to 25 mg have been administered for up to 25 days, with 3 of 8 participants treated at the 25 mg dose level experiencing 20% or greater reductions in LVEF. An infant death was reported after accidental ingestion of three 15 mg capsules.

CYP2C19 [4] = target: CYP2C19 (Homo sapiens, UniProt P33261); assay: Concomitant use with weak CYP2C19 inhibitor omeprazole; type: in vivo; set-up: Mavacamten is hepatically metabolized predominantly via CYP2C19 (74%), CYP3A4 (18%) and CYP2C9 (8%); from tissue; host or cells: liver of human subjects in vivo, or a Simcyp virtual population; details: mavacamten 15 mg with omeprazole 20 mg once daily; healthy CYP2C19 NMs and RMs
CYP2C19 (Homo sapiens, UniProt P33261), sequence (P33261 whole entry): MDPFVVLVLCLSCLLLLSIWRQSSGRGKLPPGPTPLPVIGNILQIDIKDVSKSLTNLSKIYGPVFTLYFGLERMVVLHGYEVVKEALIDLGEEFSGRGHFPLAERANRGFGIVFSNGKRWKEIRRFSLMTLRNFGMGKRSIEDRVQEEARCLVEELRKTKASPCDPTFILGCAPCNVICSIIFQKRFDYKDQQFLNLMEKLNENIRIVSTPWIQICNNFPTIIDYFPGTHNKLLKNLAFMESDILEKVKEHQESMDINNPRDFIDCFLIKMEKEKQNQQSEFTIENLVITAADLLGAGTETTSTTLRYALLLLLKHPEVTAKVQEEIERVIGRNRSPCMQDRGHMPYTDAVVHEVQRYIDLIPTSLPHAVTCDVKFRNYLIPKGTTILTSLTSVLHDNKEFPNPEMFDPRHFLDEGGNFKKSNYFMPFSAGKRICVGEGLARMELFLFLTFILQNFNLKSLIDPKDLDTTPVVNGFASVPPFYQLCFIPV

[5] = tested on: organic anion transporting polypeptides (OATPs); assay: In vitro transporter inhibition; type: in vitro ADME; details: In Vitro Studies
[6] = CYP2C19 PMs compared to NMs, single dose of 15 mg
[7] = Baseline to Week 30, vs Placebo

CYP1A2, sequence (P05177 whole entry): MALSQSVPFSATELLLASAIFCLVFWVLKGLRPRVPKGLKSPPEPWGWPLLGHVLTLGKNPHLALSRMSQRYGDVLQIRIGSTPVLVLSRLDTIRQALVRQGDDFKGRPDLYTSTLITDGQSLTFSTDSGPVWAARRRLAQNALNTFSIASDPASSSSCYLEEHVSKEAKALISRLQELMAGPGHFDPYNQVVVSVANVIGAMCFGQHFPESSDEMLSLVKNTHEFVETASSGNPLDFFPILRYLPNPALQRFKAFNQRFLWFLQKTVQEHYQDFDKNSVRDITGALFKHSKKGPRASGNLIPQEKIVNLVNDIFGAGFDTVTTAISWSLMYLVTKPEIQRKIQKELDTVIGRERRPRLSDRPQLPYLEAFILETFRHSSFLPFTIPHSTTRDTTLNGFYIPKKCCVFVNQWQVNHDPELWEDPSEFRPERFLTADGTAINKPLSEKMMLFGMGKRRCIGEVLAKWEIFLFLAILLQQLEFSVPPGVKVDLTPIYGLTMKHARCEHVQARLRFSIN

CC(C)n1c(=O)cc(N[C@@H](C)c2ccccc2)[nH]c1=O [mavacamten, (S)-3-Isopropyl-6-((1-phenylethyl)amino)pyrimidine-2,4(1H,3H)-dione]
inhibition of CYP1A2 (CYP1A2): does not inhibit | embryo-fetal findings (pregnant rats; pregnant rats, oral, period of organogenesis, high dose group (1.5 mg/kg/day)): increases in post-implantation loss, decreases in mean fetal body weight, reductions in fetal ossification of bones, and fetal malformations (visceral and skeletal) were observed | Plasma exposure (AUC) at the no-effect dose for embryo-fetal development vs exposure in humans at the MRHD (pregnant rats; rats): 0.3 times | inhibition of BCRP (BCRP): does not inhibit | AUCinf increase (CYP2C19 [1]; [6]): 241% | Cmax increase (CYP2C19 [1]; [6]): 47% | half-life (CYP2C19 [1]; CYP2C19 NMs): 6 to 9 days | half-life (CYP2C19 [1]; CYP2C19 PMs): 23 days | Change from baseline pVO2 ≥1.5 mL/kg/min and decreased NYHA ([2]; 30 Weeks, N = 123): 41 (33%) | Change from baseline pVO2 ≥3 mL/kg/min and NYHA not increased ([2]; 30 Weeks, N = 123): 29 (23%) | Total responders (primary endpoint) ([2]; 30 Weeks, N = 123): 45 (37%) | Change from baseline pVO2 ≥1.5 mL/kg/min and decreased NYHA, Difference (95% CI) ([2]; 30 Weeks, vs Placebo): 19% (9, 30) | Change from baseline pVO2 ≥3 mL/kg/min and NYHA not increased, Difference (95% CI) ([2]; 30 Weeks, vs Placebo): 13% (3, 22) | Total responders, Difference (95% CI) ([2]; 30 Weeks, vs Placebo): 19% (9, 30) | Number (%) with NYHA Class improved ≥1 ([2]; Baseline to Week 30, N = 123): 80 (65%) | Post-Exercise LVOT gradient, mean (SD) change ([2]; Baseline to Week 30, N = 123): −47 (40) mmHg | pVO2, mean (SD) change ([2]; Baseline to Week 30, N = 123): 1.4 (3.1) mL/kg/min | NYHA Class improved ≥1, Difference (95% CI) [2, 7]: 34% (22%, 45%) | Post-Exercise LVOT gradient, Difference (95% CI) [2, 7]: −35 (−43, −28) mmHg | pVO2, Difference (95% CI) [2, 7]: 1.4 (0.6, 2.1) mL/kg/min | Syncope leading to discontinuation, patients ([2]; EXPLORER-HCM): 0.8% | patients in whom reductions in LVEF to <50% were asymptomatic ([2]; EXPLORER-HCM): 3 of the 7 | patients who temporarily interrupted their dose due to LVEF<50% ([2]; EXPLORER-HCM): Three | patients with reversible reductions in LVEF to <50% while on treatment, n (%) ([2]; EXPLORER-HCM): 7 (6%) | Adverse reaction: dizziness, patients ([2]; EXPLORER-HCM, 2.5-15 mg daily): 27% | Adverse reaction: syncope, patients ([2]; EXPLORER-HCM, 2.5-15 mg daily): 6% | mean (SD) change from baseline in Valsalva LVOT gradient ([2]; Week 30): −49 (34) mmHg | mean (SD) change from baseline in resting LVOT gradient ([2]; Week 30): −39 (29) mmHg | proportion of patients who met the primary endpoint ([2]; Week 30): 37% | secondary endpoints (post-exercise LVOT peak gradient, pVO2, NYHA class, KCCQ-23 CSS, HCMSQ SoB) ([2]; Week 30): greater improvement compared to the placebo group across all secondary endpoints | HCMSQ SoB, Difference, LS Mean (95% CI) ([2]; Week 30, vs Placebo): −2 (−2, −1) | KCCQ-23 CSS, Difference, LS Mean (95% CI) ([2]; Week 30, vs Placebo): 9 (5, 13) | reduction in NT-proBNP greater than for placebo ([2]; Week 30 compared with baseline): 80% | LVEF following interruption in patients with LVEF <50% ([2]; all 7 patients): LVEF recovered | Subgroup analysis of the primary composite functional endpoint ([2]; all subgroups analyzed (FIG. 17)): consistently favored MAVACAMTEN across all subgroups analyzed | benefit in patients on background beta blocker therapy compared to those who were not ([2]; attenuated improvement in pVO2): smaller | KCCQ-23 PL, Change from Baseline to Week 30, Mean (SD) ([2]; in vivo): 15 (17) | KCCQ-23 TSS, Change from Baseline to Week 30, Mean (SD) ([2]; in vivo): 12 (15) | KCCQ-23 CSS, Change from Baseline to Week 30, Mean (SD) ([2]; n = 99): 14 (14) | HCMSQ SoB, Change from Baseline to Week 30, Mean (SD) ([2]; n = 108): −3 (3) | mean (SD) absolute change from baseline in LVEF ([2]; over the 30-week treatment period): −4% (8) | genotoxicity [3]: not genotoxic | inhibition of CYP3A4 (CYP3A4): not an inhibitor | genotoxicity (lymphocyte): not genotoxic | participants experiencing 20% or greater reductions in LVEF (healthy subjects): 3 of 8 | effect on mavacamten Cmax (CYP2C19 [4]): no effect | mavacamten AUCinf increase (CYP2C19 [4]): 48% | inhibition of OATPs [5]: does not inhibit

Source: patent publication US20230338378A1, “Methods of Administering Myosin Inhibitors” (MYOKARDIA, INC., priority 2022, published 2023)
